Test results published in ChEMBL document CHEMBL1201862, “PubChem BioAssay data set” (2004).
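Five concentrations, 48 hours, 96-well plates. Abbreviation: GI50, concentration required for 50% inhibition of growth.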 Active and inactive are the calls of the source. No stated cut-off is given here; in the data, active = GI50 up to about 1.1 µM and inactive = higher.

What was measured:
Test in all cases: NCI-60 cell line screen, 48 h
IGROV-1 = test system: IGROV-1
786-0 = test system: 786-0
SR = test system: SR
TK-10 = test system: TK-10
SNB-19 = test system: SNB-19
BT-549 = test system: BT-549
MDA-MB-231 = test system: MDA-MB-231
UACC-62 = test system: UACC-62
HOP-62 = test system: HOP-62
COLO 205 = test system: COLO 205
ACHN = test system: ACHN
MCF7 = test system: MCF7
T47D = test system: T47D
UACC-257 = test system: UACC-257
OVCAR-5 = test system: OVCAR-5
CAKI-1 = test system: CAKI-1
SNB-75 = test system: SNB-75
HOP-92 = test system: HOP-92
OVCAR-4 = test system: OVCAR-4

Row | SMILES | GI50 (IGROV-1) | GI50 (786-0) | GI50 (SR) | GI50 (TK-10) | GI50 (SNB-19) | GI50 (BT-549) | GI50 (MDA-MB-231) | GI50 (UACC-62) | GI50 (HOP-62) | GI50 (COLO 205) | GI50 (ACHN) | GI50 (MCF7) | GI50 (T47D) | GI50 (UACC-257) | GI50 (OVCAR-5) | GI50 (CAKI-1) | GI50 (SNB-75) | GI50 (HOP-92) | GI50 (OVCAR-4)
1 | COc1ccc([N+](=O)[O-])cc1[I+]c1cc([N+](=O)[O-])ccc1OC | 23 µM (inactive) | > 100 µM (inactive) | 12.3 µM (inactive) | 58.6 µM (inactive) | 34.9 µM (inactive) | 30.9 µM (inactive) | > 100 µM (inactive) | 23.2 µM (inactive) | > 100 µM (inactive) | 68.9 µM (inactive) | 74.3 µM (inactive) | 31.9 µM (inactive) | 28.8 µM (inactive) | 33.6 µM (inactive) | > 100 µM (inactive) | 38.6 µM (inactive) | – | – | –
2 | CNC(=O)C(C)NC(=O)C(Cc1ccccc1)NC(=O)OC(C)(C)C (centres undefined) | > 100 µM (inactive) | > 100 µM (inactive) | > 100 µM (inactive) | > 100 µM (inactive) | > 100 µM (inactive) | > 100 µM (inactive) | > 100 µM (inactive) | > 100 µM (inactive) | > 100 µM (inactive) | > 100 µM (inactive) | > 100 µM (inactive) | > 100 µM (inactive) | > 100 µM (inactive) | > 100 µM (inactive) | > 100 µM (inactive) | > 100 µM (inactive) | > 100 µM (inactive) | > 100 µM (inactive) | –
3 | O=c1nc2n3c4c(cccc4nc-2c(=O)[nH]1)CCC3 | > 100 µM (inactive) | > 100 µM (inactive) | – | > 100 µM (inactive) | > 100 µM (inactive) | > 100 µM (inactive) | > 100 µM (inactive) | > 100 µM (inactive) | > 100 µM (inactive) | 47 µM (inactive) | > 100 µM (inactive) | 58.3 µM (inactive) | 60.7 µM (inactive) | > 100 µM (inactive) | > 100 µM (inactive) | > 100 µM (inactive) | > 100 µM (inactive) | – | 86.7 µM (inactive)
4 | Nc1cccc(OCC2CCCN3CCCCC23)c1 (centres undefined) | – | 15.6 µM (inactive) | – | 17.4 µM (inactive) | 17.9 µM (inactive) | 17.1 µM (inactive) | 17.2 µM (inactive) | 17.1 µM (inactive) | 16.2 µM (inactive) | 19.5 µM (inactive) | 18 µM (inactive) | 19.5 µM (inactive) | 17.8 µM (inactive) | 19 µM (inactive) | 17.7 µM (inactive) | 17.6 µM (inactive) | 16.7 µM (inactive) | 28.5 µM (inactive) | 23.2 µM (inactive)
5 | COc1ccc(OC)c(/C=C/c2ccnc3ccccc23)c1 | 0.822 µM (active) | 0.482 µM (active) | 0.277 µM (active) | 1.61 µM (inactive) | 0.631 µM (active) | 0.568 µM (active) | 0.565 µM (active) | 0.307 µM (active) | 0.45 µM (active) | 0.277 µM (active) | 0.533 µM (active) | 0.851 µM (active) | 1.63 µM (inactive) | 0.513 µM (active) | 2.43 µM (inactive) | 1.28 µM (inactive) | – | 1.07 µM (active) | 0.863 µM (active)
6 | O=C(/C(=N\Nc1ccc([N+](=O)[O-])cc1[N+](=O)[O-])NC12CC3CC(CC(C3)C1)C2)C(Br)C(=O)c1ccccc1 (centres undefined) | 6.67 µM (inactive) | 3.21 µM (inactive) | – | 5.66 µM (inactive) | 3.97 µM (inactive) | 4.44 µM (inactive) | 2.27 µM (inactive) | 3.38 µM (inactive) | 2.74 µM (inactive) | 2.18 µM (inactive) | 3.18 µM (inactive) | 3.86 µM (inactive) | 2.69 µM (inactive) | 1.88 µM (inactive) | 5.4 µM (inactive) | 3.2 µM (inactive) | 2.48 µM (inactive) | 2.79 µM (inactive) | 2.77 µM (inactive)
7 | CC1(CCc2ccccc2)CC1(Br)Br (centres undefined) | 92 µM (inactive) | 21 µM (inactive) | 19.8 µM (inactive) | – | > 100 µM (inactive) | > 100 µM (inactive) | 73.1 µM (inactive) | 52 µM (inactive) | 51.9 µM (inactive) | 20.8 µM (inactive) | 26.3 µM (inactive) | 38.8 µM (inactive) | 27.2 µM (inactive) | 25.8 µM (inactive) | 32.6 µM (inactive) | 56.5 µM (inactive) | 50.6 µM (inactive) | 13 µM (inactive) | 30.3 µM (inactive)
8 | COc1cc(/N=N/N(C)C)c(C(C)c2c3cc(OC)c(OC)cc3cc[n+]2C)cc1OC (centres undefined) | 36.9 µM (inactive) | 51.8 µM (inactive) | – | 31.6 µM (inactive) | 42.3 µM (inactive) | 46.9 µM (inactive) | 26.3 µM (inactive) | 25.1 µM (inactive) | 49.7 µM (inactive) | 14.8 µM (inactive) | > 100 µM (inactive) | 33.4 µM (inactive) | 23.4 µM (inactive) | 38 µM (inactive) | > 100 µM (inactive) | > 100 µM (inactive) | 31.6 µM (inactive) | – | 51.9 µM (inactive)
9 | O=[N+]([O-])c1cc(Cl)ccc1S(=O)(=O)c1ccccc1 | > 100 µM (inactive) | > 100 µM (inactive) | – | > 100 µM (inactive) | > 100 µM (inactive) | 60.7 µM (inactive) | 51.3 µM (inactive) | 53 µM (inactive) | 39.7 µM (inactive) | 70 µM (inactive) | > 100 µM (inactive) | > 100 µM (inactive) | 66.7 µM (inactive) | 34 µM (inactive) | > 100 µM (inactive) | > 100 µM (inactive) | 30.8 µM (inactive) | 82 µM (inactive) | 24.7 µM (inactive)
10 | O=C1NC(=O)C2(CCCCCC2)N1 | > 100 µM (inactive) | > 100 µM (inactive) | – | > 100 µM (inactive) | > 100 µM (inactive) | > 100 µM (inactive) | > 100 µM (inactive) | > 100 µM (inactive) | > 100 µM (inactive) | > 100 µM (inactive) | > 100 µM (inactive) | > 100 µM (inactive) | > 100 µM (inactive) | > 100 µM (inactive) | > 100 µM (inactive) | > 100 µM (inactive) | > 100 µM (inactive) | > 100 µM (inactive) | > 100 µM (inactive)
11 | Cc1nc2c(n1CCCl)C(=O)c1ccccc1C2=O | 11.6 µM (inactive) | 52.2 µM (inactive) | 28.8 µM (inactive) | 26.7 µM (inactive) | 39.1 µM (inactive) | 20.1 µM (inactive) | 15.4 µM (inactive) | 13 µM (inactive) | 19.5 µM (inactive) | 14 µM (inactive) | 28.9 µM (inactive) | 18.9 µM (inactive) | > 10 µM (inactive) | 14.1 µM (inactive) | 19 µM (inactive) | – | 14.5 µM (inactive) | 29.2 µM (inactive) | 14.8 µM (inactive)
12 | OC1CSc2nc3ccccc3n2C1 (centres undefined) | > 100 µM (inactive) | > 100 µM (inactive) | > 100 µM (inactive) | > 100 µM (inactive) | > 100 µM (inactive) | > 100 µM (inactive) | > 100 µM (inactive) | > 100 µM (inactive) | – | > 100 µM (inactive) | > 100 µM (inactive) | > 100 µM (inactive) | > 100 µM (inactive) | > 100 µM (inactive) | > 100 µM (inactive) | > 100 µM (inactive) | 17.9 µM (inactive) | > 100 µM (inactive) | –
13 | CN(C)CCOC(=O)c1ccc(N)cc1 | 22.4 µM (inactive) | 44.8 µM (inactive) | – | 44.4 µM (inactive) | 56.5 µM (inactive) | 51.1 µM (inactive) | 16.1 µM (inactive) | 36.8 µM (inactive) | > 100 µM (inactive) | 67.3 µM (inactive) | 54.1 µM (inactive) | 32.6 µM (inactive) | 58.5 µM (inactive) | 19.4 µM (inactive) | 29.6 µM (inactive) | 32.3 µM (inactive) | – | 12.6 µM (inactive) | 31.6 µM (inactive)
14 | CCCCCCCCCCCCCCCC(=O)OC1C(O)C(O)C(O)C(O)C12CO2 (centres undefined) | 25.1 µM (inactive) | 18.6 µM (inactive) | – | > 100 µM (inactive) | > 100 µM (inactive) | 24.2 µM (inactive) | 34.4 µM (inactive) | 28.4 µM (inactive) | > 100 µM (inactive) | 36.3 µM (inactive) | 24.4 µM (inactive) | 16.2 µM (inactive) | > 100 µM (inactive) | > 100 µM (inactive) | 56 µM (inactive) | 13.6 µM (inactive) | 20.7 µM (inactive) | 14.3 µM (inactive) | 55.1 µM (inactive)
15 | CC1N(C)C(=O)OC12CCN(CCCC(=O)c1ccc(F)cc1)CC2 (centres undefined) | > 100 µM (inactive) | > 100 µM (inactive) | – | > 100 µM (inactive) | > 100 µM (inactive) | > 100 µM (inactive) | > 100 µM (inactive) | > 100 µM (inactive) | > 100 µM (inactive) | > 100 µM (inactive) | > 100 µM (inactive) | > 100 µM (inactive) | > 100 µM (inactive) | > 100 µM (inactive) | > 100 µM (inactive) | > 100 µM (inactive) | > 100 µM (inactive) | – | –
16 | CC(C)(C)OC(=O)N(O)[C@@H]1CC[C@H](n2cnc3c(N)ncnc32)C1 | 54.5 µM (inactive) | > 100 µM (inactive) | > 100 µM (inactive) | > 100 µM (inactive) | > 100 µM (inactive) | > 100 µM (inactive) | > 100 µM (inactive) | > 100 µM (inactive) | > 100 µM (inactive) | > 100 µM (inactive) | > 100 µM (inactive) | > 100 µM (inactive) | > 100 µM (inactive) | > 100 µM (inactive) | > 100 µM (inactive) | – | > 100 µM (inactive) | > 100 µM (inactive) | > 100 µM (inactive)
